Measurements taken from patent US6552021B2, “Pharmaceutical compounds” (Xenova Limited, priority 2000, dated 2003).
Where two headings read alike, the source gives them in different places.

Assays:
[1] = system: H69 parental (H69/P) human small cell lung carcinoma cell line; test: Cytotoxicity in H69 parental cells (AlamarBlue); assay type: cell-based; conditions: 5-6 days incubation, concentration required to give 50% cell kill
Experimental: (§1) The cytotoxicity of compounds of formula (I) was measured using the H69 parental (H69/P) human small cell lung carcinoma cell line and the drug resistant human small cell lung carcinoma cell line H69/LX4 which overexpresses P-glycoprotein (Pgp).
(§2) H69/P and H69/LX4 cells were pipetted into 96-well tissue culture plates and then allowed to incubate at 37° C. for 4 h. A range of concentrations from 0.01 nM to 5 μM of compounds of formula (I) or the standards TAS-103, Doxorubicin and Topotecan were then added. The plates were incubated for 5-6 days before adding AlamarBlue to each well and returning the plates to the incubator for 5-8 h to allow colour development. The cell numbers in the plates at the end of this period were directly proportional to the absorbance measured at a wavelength of 570 nm (reference wavelength 600 nm).

[2] = system: H69/LX4 human small cell lung carcinoma cell line which overexpresses P-glycoprotein (Pgp); test: Cytotoxicity in drug resistant H69/LX4 cells (AlamarBlue); conditions: for Rf (resistance factor): IC50 in H69/LX4 divided by IC50 in H69/P
Experimental: as §1, §2

[3] = system: COR-L23 parental (COR-L23/P) human non-small cell lung carcinoma cell line; test: Cytotoxicity in COR-L23 parental cells (SRB assay); assay type: cell-based
Experimental: The cytotoxicity of the compounds described herein was also measured using the COR-L23 parental (COR-L23/P) human non-small cell lung carcinoma cell line and also the drug resistant human non-small cell lung carcinoma cell line COR-L23/R which overexpresses multidrug resistance associated protein (MRP). The cytotoxicity, as measured by the IC50 (concentration required to give 50% cell kill) in the L23/R cell line divided by the cytotoxicity in the L23/P cell line gives an indication of the degree to which a compound may be affected by MRP-dependant MDR and is termed the resistance factor (Rf) of the compound.
(§3) L23/P and L23/R cells were pipetted into 96-well tissue culture plates and then allowed to incubate at 37° C. for 4 h. A range of concentrations from 0.01 nM to 5 μM of compounds of formula (I) or the standards TAS-103, Doxorubicin and Topotecan were then added. The plates were incubated for 5-6 days before proliferation was assessed using the sulphurhodamine B (SRB) assay as described by Skehan et al, J Natl Cancer Inst 1990, 82, pp1107-1112.

[4] = system: COR-L23/R human non-small cell lung carcinoma cell line which overexpresses multidrug resistance associated protein (MRP); test: Cytotoxicity in drug resistant COR-L23/R cells (SRB assay); assay type: cell-based; conditions: for Rf (resistance factor): IC50 in L23/R divided by IC50 in L23/P; for IC50: L23/R cells (MRP overexpressing), 5-6 days incubation, SRB
Experimental: (§4) The cytotoxicity of the compounds described herein was also measured using the COR-L23 parental (COR-L23/P) human non-small cell lung carcinoma cell line and also the drug resistant human non-small cell lung carcinoma cell line COR-L23/R which overexpresses multidrug resistance associated protein (MRP).
as §3

[5] = system: Jurkat human leukaemia cell line (JLC); test: Cytotoxicity in Jurkat cells (JLC); assay type: cell-based
Experimental: (§5) The cytotoxicity of the compounds described herein was also measured using the Jurkat human leukaemia cell line (JLC) and also the amsacrine-resistant Jurkat human leukaemia cell line (JLA) and the doxorubicin-resistant Jurkat human leukaemia cell line (JLD). The cytotoxicity, as measured by the IC50 (concentration required to give 50% cell kill) in the JLA or JLD cell line divided by the cytotoxicity in the JLC cell line gives an indication of the degree to which a compound may be affected by atypical drug resistance and is termed the resistance factor (Rf) of the compound. The method used has been described previously (Finlay et al, Eur J. Cancer 32A, 708-714, 1996). Compounds were active in the range 1 nM to 5 μM.

[6] = system: amsacrine-resistant Jurkat human leukaemia cell line (JLA); test: Cytotoxicity in amsacrine-resistant Jurkat cells (JLA); assay type: cell-based; conditions: for Rf(JLA/JLC): IC50 in JLA divided by IC50 in JLC; for IC50: JLA cells (amsacrine-resistant)
Experimental: as §5

[7] = system: doxorubicin-resistant Jurkat human leukaemia cell line (JLD); test: Cytotoxicity in doxorubicin-resistant Jurkat cells (JLD); assay type: cell-based; conditions: for Rf(JLD/JLC): IC50 in JLD divided by IC50 in JLC; for IC50: JLD cells (doxorubicin-resistant)
Experimental: as §5

topoisomerase I = target: T1, topoisomerase I (Homo sapiens, UniProt P11387); test: Stabilization of cleavable complexes with topoisomerase I; assay type: biochemical; conditions: range where an increase in cleavable complexes was observed relative to controls
T1 sequence (P11387 1-765): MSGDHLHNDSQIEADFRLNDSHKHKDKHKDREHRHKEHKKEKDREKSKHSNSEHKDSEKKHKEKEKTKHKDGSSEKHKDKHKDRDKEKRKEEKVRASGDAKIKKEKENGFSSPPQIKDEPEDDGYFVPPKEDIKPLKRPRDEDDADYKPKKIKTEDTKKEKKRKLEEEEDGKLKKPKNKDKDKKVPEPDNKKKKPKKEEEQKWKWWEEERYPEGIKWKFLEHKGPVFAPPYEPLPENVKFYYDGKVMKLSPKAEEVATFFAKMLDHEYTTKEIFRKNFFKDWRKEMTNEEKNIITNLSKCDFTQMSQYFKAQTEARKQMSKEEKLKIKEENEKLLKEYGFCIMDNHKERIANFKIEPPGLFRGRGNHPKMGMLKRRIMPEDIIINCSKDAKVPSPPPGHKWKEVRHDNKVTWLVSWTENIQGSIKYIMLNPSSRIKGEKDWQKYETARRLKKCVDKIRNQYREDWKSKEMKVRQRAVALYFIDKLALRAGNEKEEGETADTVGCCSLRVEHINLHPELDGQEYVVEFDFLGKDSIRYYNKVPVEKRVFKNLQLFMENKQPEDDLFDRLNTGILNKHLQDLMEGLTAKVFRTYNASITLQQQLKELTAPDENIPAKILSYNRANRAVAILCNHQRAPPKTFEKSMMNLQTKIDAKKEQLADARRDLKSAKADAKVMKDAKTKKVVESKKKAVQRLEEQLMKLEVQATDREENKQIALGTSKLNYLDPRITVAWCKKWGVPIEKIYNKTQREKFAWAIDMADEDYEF
Description: (§6) Compounds were also studied for their ability to stabilize cleavable complexes in the presence of either topoisomerase I or II essentially as described previously (Finlay et al, Eur. J. Cancer 32A, 708-714, 1996). Presence of cleavable complexes was indicated by an increase in the number and intensity of bands observed after electrophoresis and autoradiography. The results are expressed as the effective concentration range where an increase in cleavable complexes was observed relative to controls in the absence of drug.

topoisomerase II = test: Stabilization of cleavable complexes with topoisomerase II; assay type: biochemical; conditions: range where an increase in cleavable complexes was observed relative to controls
Description: as §6

[8] = Cytotoxicity in drug resistant COR-L23/R cells (SRB assay); assay type: cell-based, human; conditions: Homo sapiens, COR-L23/R; L23/R cells (MRP overexpressing), 5-6 days incubation, SRB
Experimental: as §4, §3

[9] = Homo sapiens, read-out: H69/LX4 IC50
[10] = Homo sapiens, COR-L23, 5-6 days incubation

Effective concentration range, Topoisomerase I (topoisomerase I) | Effective concentration range, Topoisomerase II (topoisomerase II) | SMILES | IC50 [1] | Rf (resistance factor) [2] | IC50 ([2]; read-out: H69/LX4 IC50, H69/LX4 cells (Pgp overexpressing), 5-6 days incubation) | IC50 ([3]; 5-6 days incubation) | Rf (resistance factor) [4] | IC50 [4] | IC50 [5] | Rf(JLA/JLC) [6] | IC50 [6] | Rf(JLD/JLC) [7] | IC50 [7] | IC50 [2, 9] | IC50 [3, 10] | IC50 [8] | IC50 [2] | IC50 ([5]; Homo sapiens, Jurkat) | IC50 ([6]; Homo sapiens, Jurkat) | IC50 ([7]; Homo sapiens, Jurkat)
– | – | CC[C@@]1(O)C(=O)OCc2c1cc1n(c2=O)Cc2cc3c(CN(C)C)c(O)ccc3nc2-1 [Topotecan, reference compound] | – | 3.9 | – | – | 1.5 | – | – | – | – | – | – | 0.0615 µM | 0.0136 µM | 0.0208 µM | – | – | – | –
– | – | CN(C)CCNC(=O)c1cccc2nc3ccc4ncccc4c3nc12 [Compound 3, Pyrido[3,2-α]phenazine-11-carboxylic acid (2-dimethylamino-ethyl)-amide] | 0.123 µM | 1.1 | – | 0.048 µM | 1.5 | 0.071 µM | 0.074 µM | 2.8 | 0.235 µM | 0.7 | 0.052 µM | – | – | – | 0.133 µM | – | – | –
– | – | CN(C)CCNC(=O)c1cccc2nc3ccc4cnccc4c3nc12 [Compound 2, Pyrido[4,3-α]phenazine-11-carboxylic acid (2-dimethylamino-ethyl)-amide] | 0.088 µM | 0.6 | – | 0.022 µM | 2.5 | 0.056 µM | 0.028 µM | 3 | 0.084 µM | 2.8 | 0.078 µM | – | – | – | 0.056 µM | – | – | –
0.1 to 3.0 µM | 0.1 to 3.0 µM | COc1nccc2c1ccc1nc3cccc(C(=O)N[C@H](C)CN(C)C)c3nc12 [Compound 6, 4-Methoxypyrido[4,3-α]phenazine-11-carboxylic acid (2-dimethylamino-1-(R)-methyl-ethyl)-amide] | 0.024 µM | 1.2 | – | 0.012 µM | 1.3 | 0.015 µM | 0.01 µM | 0.7 | 0.007 µM | 0.9 | 0.009 µM | – | – | – | 0.029 µM | – | – | –
– | – | COc1cccc2c1C(=O)c1c(O)c3c(c(O)c1C2=O)C[C@@](O)(C(=O)CO)C[C@@H]3O[C@H]1C[C@H](N)[C@H](O)[C@H](C)O1 [Doxorubicin, reference compound] | – | 135 | – | – | 16.1 | – | – | 3.7 | – | – | – | 3.7 µM | 0.0203 µM | 0.327 µM | – | 0.007 µM | 0.0259 µM | 0.109 µM
0.1 to 3.0 µM | 0.1 to 3.0 µM | COc1nccc2c1ccc1nc3cccc(C(=O)NCCN(C)C)c3nc12 [Compound 5, 4-Methoxypyrido[4,3-α]phenazine-11-carboxylic acid (2-dimethylamino-ethyl)-amide] | 0.021 µM | 1.3 | – | 0.014 µM | 1.1 | 0.016 µM | 0.017 µM | 0.7 | 0.012 µM | 0.7 | 0.012 µM | – | – | – | 0.026 µM | – | – | –
– | – | COc1nccc2c1ccc1nc3cccc(C(=O)N[C@H](CO)CN(C)C)c3nc12 [Compound 9, 4-Methoxypyrido[4,3-α]phenazine-11-carboxylic acid (2-dimethylamino-1-(S)-hydroxymethyl-ethyl)-amide] | 0.024 µM | 1.2 | – | 0.004 µM | 1.5 | 0.006 µM | – | – | – | – | – | – | – | – | 0.028 µM | – | – | –
– | – | CN(C)CCNC(=O)c1cccc2nc3ccc4cnn(C)c4c3nc12 [Compound 13, 1-Methyl-1H-pyrazolo[3,4-α]phenazine-10-carboxylic acid (2-dimethylamino-ethyl)-amide] | 0.109 µM | 0.9 | – | – | – | – | 0.044 µM | 1 | 0.044 µM | 1.1 | 0.048 µM | – | – | – | 0.097 µM | – | – | –

SMILES | Effective concentration range, Topoisomerase I (topoisomerase I) | Effective concentration range, Topoisomerase II (topoisomerase II) | IC50 [1] | Rf (resistance factor) [2] | IC50 ([2]; read-out: H69/LX4 IC50, H69/LX4 cells (Pgp overexpressing), 5-6 days incubation) | IC50 ([3]; 5-6 days incubation) | Rf (resistance factor) [4] | IC50 [4] | IC50 [5] | Rf(JLA/JLC) [6] | IC50 [6] | Rf(JLD/JLC) [7] | IC50 [7] | IC50 [2, 9] | IC50 [3, 10] | IC50 [8] | IC50 [2] | IC50 ([5]; Homo sapiens, Jurkat) | IC50 ([6]; Homo sapiens, Jurkat) | IC50 ([7]; Homo sapiens, Jurkat)
CN(C)CCNc1nc2cc(O)ccc2c2c1C(=O)c1ccccc1-2 [TAS-103, reference compound] | 0.3 to 10.0 µM | 0.3 to 10.0 µM | 0.021 µM | 1.1 | 0.022 µM | 0.0163 µM | 1.3 | 0.022 µM | 0.0054 µM | 55.9 | 0.302 µM | 71.1 | 0.384 µM | – | – | – | – | – | – | –
